Reference: patent publication US9561228B2 (Celgene Avilomics Research, Inc., priority 2013, dated 2017)

Key:
[1] = target: T1, Erk1 (Homo sapiens, UniProt P27361); assay: Protein Mass Modification Assay (intact protein MALDI, 60 min, 10-fold excess of compound); type: binding
T1 construct: purchased Millipore 14-439
Method: Protein Mass Modification Assay
Intact protein: Erk1 from Millipore (Cat. No. 14-439) was incubated for 60 min. at room temperature with a 10-fold excess of test compound to protein. 4 μL aliquots of the resulting mixture were diluted with 15 μL of 0.2% TFA prior to micro C4 ZipTipping directly onto the MALDI target using sinapinic acid as the desorption matrix (10 mg/ml in 0.1% TFA:Acetonitrile 50:50, v/v). The centroid mass of the target protein in the control sample was compared with the centroid mass of the target protein incubated with compound. A shift in the centroid mass of the treated protein compared to the untreated protein was divided by the molecular weight of the compound. This number corresponds to the percentage of modified protein after one hour incubation. Results from this assay are reported in Table A under the column “ERK1 Mass Mod (%).”

[2] = system: ERK1/2 phosphorylation of p90RSK in HT29 cells; assay: pRSK MSD Assay in HT29 cells; type: cell-based; conditions: Homo sapiens, HT-29, read-out: ERK1/ERK2 PRSK MSD HT29 EC50
Method in brief: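 Serum-starved HT29 cells (0.1% FBS overnight) treated with test compound for 120 min at 37° C, then lysed with protease and phosphatase inhibitors. Phospho-p90RSK quantified by MSD sandwich immunoassay: RSK capture antibody, phospho-RSK detection antibody plus Sulfo-tagged antibody, electrochemiluminescence read.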

[3] = target: T2, MEK1 activated ERK1 (Homo sapiens, UniProt P27361); assay: Omnia continuous-read kinase assay for potency against MEK1 activated ERK1; type: biochemical; conditions: MEK1 activated ERK1, ATP at KM; read-out: ERK1 Omnia WT ATP KM IC50
T2 construct: purchased Millipore (Billerica, Mass.) 14-439-K
Method in brief: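 Apparent IC50 came from initial reaction slopes (RFU vs time) plotted against log inhibitor with a variable-slope fit. Reactions were started with ERK1 (4 nM final) added to 50 μM ATP, roughly at its appKM, and 10 μM Sox-conjugated ST17 peptide in 20 mM Tris pH 7.5, 5 mM MgCl2. Fluorescence was monitored every 71 seconds.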

[4] = system: A375 cells (malignant melanoma); assay: Inhibition of cancer cell proliferation, A375 (CellTiterGlo, 72 hours); type: cell-based; conditions: Homo sapiens, A-375
Method: Measurement of Inhibition of Cancer Cell Proliferation (A375/Malignant Melanoma)
The following protocol used an A375 cell line, which cell line is a model for malignant melanoma. A375 cells were split and 3000 cells in […] of growth medium were added per well of a flat-bottom 96-well plate. A two-fold test compound solution in serum-free DMEM was made, starting at 5,000 nM. Then, 3-fold serial dilutions were made across the plate from well 1 to well 11. Well 12, the last well in a row on the plate, was left as untreated control. 100 μl compound solutions were then transferred to the wells, so the total volume of media was 200 μl per well. Plates were returned to a 37° C. incubator, and the cells were cultured for 72 hours. To measure cell proliferation after 72 hours, media was discarded from the plates, 50 μl/well of fresh medium was added, and 50 μl CellTiterGlo solution was added (Promega Cat#G7573). The plate was covered with a dark lid and incubated for 10 min. A white sealing tape was applied to the bottom of the plate, and the plate was read in a luminescence plate reader. […] 50 μl CellTiterGlo was added per well, and the plate was read in a luminescence plate reader after 10 min. The reading was plotted vs. cell number to generate a standard curve and the equation of the curve fit. The compound-treated sample luminescence readings were converted to cell numbers using the curve-fit equation. The percent of inhibition, using untreated control as 100% growth, was then calculated. GI50 was then calculated by GraphPad Prism.

[5] = system: HT-29 cells (colorectal adenocarcinoma); assay: Inhibition of cancer cell proliferation, HT-29 (CellTiterGlo, 72 hours); type: cell-based; conditions: Homo sapiens
Method in brief: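 HT-29 cells seeded at 3000/well, then treated with 3-fold serial dilutions from a 5,000 nM two-fold solution in serum-free RPMI1640, untreated wells as control, for 72 h at 37° C. CellTiterGlo luminescence converted to cell number via a standard curve; GI50 from percent inhibition versus untreated growth.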

T2 sequence (P27361 whole entry): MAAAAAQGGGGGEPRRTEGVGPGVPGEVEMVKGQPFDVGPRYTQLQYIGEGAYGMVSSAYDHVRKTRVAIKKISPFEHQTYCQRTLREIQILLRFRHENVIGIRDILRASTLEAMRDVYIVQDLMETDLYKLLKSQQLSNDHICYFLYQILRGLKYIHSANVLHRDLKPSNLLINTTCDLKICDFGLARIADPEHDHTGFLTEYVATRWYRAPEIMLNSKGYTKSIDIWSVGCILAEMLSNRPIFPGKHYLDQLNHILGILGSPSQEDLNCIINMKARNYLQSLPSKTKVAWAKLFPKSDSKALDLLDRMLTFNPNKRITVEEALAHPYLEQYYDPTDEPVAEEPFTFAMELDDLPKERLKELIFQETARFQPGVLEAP
T1 sequence (P27361 whole entry): as above

| Structure (SMILES) | ERK1 Mass Mod (%) [1] | EC50 [2] | IC50 [3] | GI50 [4] | GI50 [5] |
| --- | --- | --- | --- | --- | --- |
| C=CC(=O)N[C@H]1CCCC[C@@H]1Nc1nc(N[C@H]2CCCN(C(=O)CO)C2)ncc1C(F)(F)F (racemic) [Compound I-27, Rac-N-(2-((2-(((R)-1-(2-hydroxyacetyl)piperidin-3-yl)amino)-5-(trifluoromethyl)pyrimidin-4-yl)amino)-trans-cyclohexyl)acrylamide] | F (key: E: a mass modification of ≧70%; F: a mass modification of 31-69%; G: a mass modification ≦30%) | 501 to 999 nM | – | – | – |
| C/C=C/C(=O)Nc1cc(F)ccc1Nc1nc(N[C@@H]2CCC[C@H](C(N)=O)C2)ncc1Cl (racemic) [Compound I-113, Rac-cis-(E)-3-((4-((2-(but-2-enamido)-4-fluorophenyl)amino)-5-chloropyrimidin-2-yl)amino)cyclohexanecarboxamide] | F (key: E: a mass modification of ≧70%; F: a mass modification of 31-69%; G: a mass modification ≦30%) | > 1000 nM | > 1000 nM | – | – |
| C=CC(=O)Nc1ccccc1Nc1nc(N[C@@H]2CCC[C@H](C(=O)O)C2)ncc1Cl (racemic) [Compound I-133, Rac-3-((4-((2-acrylamidophenyl)amino)-5-chloropyrimidin-2-yl)amino)-cis-cyclohexanecarboxylic acid] | E (a mass modification of ≧70%) | – | 101 to 500 nM | – | – |
| C=CC(=O)Nc1cc(F)ccc1Nc1nc(N[C@H]2CC[C@@H](F)CC2)ncc1C(F)(F)F [Compound I-8, N-(5-fluoro-2-((2-((cis-4-fluorocyclohexyl)amino)-5-(trifluoromethyl)pyrimidin-4-yl)amino)phenyl)acrylamide] | E (a mass modification of ≧70%) | – | 101 to 500 nM | – | – |
| CC(=O)N1CCC[C@H](Nc2ncc(C(F)(F)F)c(Nc3ccccc3NC(=O)CCCl)n2)C1 [Compound I-21, (S)—N-(2-((2-((1-Acetylpiperidin-3-yl)amino)-5-(trifluoromethyl)pyrimidin-4-yl)amino)phenyl)-3-chloropropanamide] | G (a mass modification ≦30%) | > 1000 nM | 101 to 500 nM | – | – |
| C=CC(=O)N[C@@H]1CCCC[C@H]1Nc1nc(N[C@H]2CCCN(C(=O)CO)C2)ncc1C(F)(F)F [Compound I-32, N-((1R,2R)-2-((2-(((S)-1-(2-hydroxyacetyl)piperidin-3-yl)amino)-5-(trifluoromethyl)pyrimidin-4-yl)amino)cyclohexyl)acrylamide] | F (a mass modification of 31-69%) | > 1000 nM | 101 to 500 nM | – | – |
| C=CC(=O)Nc1ccccc1Nc1nc(Nc2ccc(N3CCN(C(C)=O)CC3)cc2OC)ncc1C(F)(F)F [Compound I-66, N-(2-((2-((4-(4-Acetylpiperazin-1-yl)-2-methoxyphenyl)amino)-5-(trifluoromethyl)pyrimidin-4-yl)amino)phenyl)acrylamide] | E (key: E: a mass modification of ≧70%; F: a mass modification of 31-69%; G: a mass modification ≦30%) | – | 501 to 999 nM | – | – |
| C=CC(=O)Nc1ccccc1Nc1nc(N[C@H]2CC[C@H](F)CC2)ncc1C(F)(F)F [Compound I-111, N-(2-((2-(trans-(4-fluorocyclohexyl)amino)-5-(trifluoromethyl)pyrimidin-4-yl)amino)phenyl)acrylamide] | E (a mass modification of ≧70%) | – | – | – | – |
| C=CC(=O)Nc1ccccc1Nc1nc(Nc2ccc(N3CCN(C(C)=O)CC3)cc2OC)ncc1Cl [Compound I-149, N-(2-((2-((4-(4-acetylpiperazin-1-yl)-2-methoxyphenyl)amino)-5-chloropyrimidin-4-yl)amino)phenyl)acrylamide] | E (key: E: a mass modification of ≧70%; F: a mass modification of 31-69%; G: a mass modification ≦30%) | – | 101 to 500 nM | – | – |
| C=CC(=O)Nc1ccccc1Nc1nc(Nc2ccc(N(CCNC(=O)OC(C)(C)C)C(C)=O)cc2OC)ncc1Cl [Compound I-174, tert-butyl(2-(N-(4-((4-((2-acrylamidophenyl)amino)-5-chloropyrimidin-2-yl)amino)-3-methoxyphenyl)acetamido)ethyl)carbamate] | E (a mass modification of ≧70%) | – | 501 to 999 nM | – | – |
| C=CC(=O)Nc1cc(OC)ccc1Nc1nc(Nc2ccc(N3CCC[C@H]3C(N)=O)cc2C#N)ncc1Cl [Compound I-178, (S)-1-(4-((4-((2-acrylamido-4-methoxyphenyl)amino)-5-chloropyrimidin-2-yl)amino)-3-cyanophenyl)pyrrolidine-2-carboxamide] | E (a mass modification of ≧70%) | – | 101 to 500 nM | – | – |
| C=CC(=O)Nc1ccccc1Nc1nc(Nc2cc(C(=O)NOCCO)ccc2C#N)ncc1Cl [Compound I-202, 3-((4-((2-acrylamidophenyl)amino)-5-chloropyrimidin-2-yl)amino)-4-cyano-N-(2-hydroxyethoxyl)benzamide] | F (a mass modification of 31-69%) | – | 101 to 500 nM | – | – |
| C=CC(=O)Nc1ccccc1Nc1nc(Nc2cc(C(=O)NCCO)c(F)cc2C)ncc1Cl [Compound I-232, 5-((4-((2-acrylamidophenyl)amino)-5-chloropyrimidin-2-yl)amino)-2-fluoro-N-(2-hydroxyethyl)-4-methylbenzamide] | – | 101 to 500 nM | 101 to 500 nM | 101 to 500 nM | < 100 nM |
| C=CC(=O)Nc1cc(C)ccc1Nc1nc(Nc2cc(C(=O)NC)c(F)cc2C)ncc1Cl [Compound I-233, 5-((4-((2-acrylamido-4-methylphenyl)amino)-5-chloropyrimidin-2-yl)amino)-2-fluoro-N,4-dimethylbenzamide] | – | 101 to 500 nM | 101 to 500 nM | 101 to 500 nM | 101 to 500 nM |
| C=CC(=O)Nc1cc(C)ccc1Nc1nc(Nc2cc(C(=O)NCCO)c(F)cc2C)ncc1Cl [Compound I-234, 5-((4-((2-acrylamido-4-methylphenyl)amino)-5-chloropyrimidin-2-yl)amino)-2-fluoro-N-(2-hydroxyethyl)-4-methylbenzamide] | – | 101 to 500 nM | 101 to 500 nM | 101 to 500 nM | 101 to 500 nM |
| C=CC(=O)Nc1cc(C)ccc1Nc1nc(Nc2ccnc(OC)c2)ncc1Cl [Compound I-235, N-(2-((5-chloro-2-((2-methoxypyridin-4-yl)amino)pyrimidin-4-yl)amino)-5-methylphenyl)acrylamide] | – | < 100 nM | 101 to 500 nM | < 100 nM | < 100 nM |
| C=CC(=O)Nc1cc(C)ccc1Nc1nc(Nc2ccncc2C)ncc1Cl [Compound I-236, N-(2-((5-chloro-2-((3-methylpyridin-4-yl)amino)pyrimidin-4-yl)amino)-5-methylphenyl)acrylamide] | – | 101 to 500 nM | 101 to 500 nM | < 100 nM | 101 to 500 nM |
| C=CC(=O)Nc1cc(OC)ccc1Oc1nc(Nc2ccc(N3CCC[C@@H]3CO)cc2OC)ncc1C(N)=O [Compound I-264, (R)-4-(2-acrylamido-4-methoxyphenoxy)-2-((4-(2-(hydroxymethyl)pyrrolidin-1-yl)-2-methoxyphenyl)amino)pyrimidine-5-carboxamide] | F (a mass modification of 31-69%) | – | > 1000 nM | – | – |
| CC(=O)N1CCC[C@H](Nc2ncc(C(F)(F)F)c(N[C@H]3[C@@H](C(N)=O)[C@@H]4C=C[C@H]3C4)n2)C1 [Compound I-308, (1S,2S,3R,4R)-3-((2-(((S)-1-acetylpiperidin-3-yl)amino)-5-(trifluoromethyl)pyrimidin-4-yl)amino)bicyclo[2.2.1]hept-5-ene-2-carboxamide] | – | > 1000 nM | 101 to 500 nM | 101 to 500 nM | 101 to 500 nM |
